Target: T1, PDE10A (Homo sapiens, UniProt Q9Y233)
T1 construct: endogenous PDE10A in SKOV3 cells
Assay: cellular cAMP immunoassay after […] for […] min, parental and empty-vector cells versus PDE10A knockout clones
Type: cell-based

T1 sequence (Q9Y233 whole entry): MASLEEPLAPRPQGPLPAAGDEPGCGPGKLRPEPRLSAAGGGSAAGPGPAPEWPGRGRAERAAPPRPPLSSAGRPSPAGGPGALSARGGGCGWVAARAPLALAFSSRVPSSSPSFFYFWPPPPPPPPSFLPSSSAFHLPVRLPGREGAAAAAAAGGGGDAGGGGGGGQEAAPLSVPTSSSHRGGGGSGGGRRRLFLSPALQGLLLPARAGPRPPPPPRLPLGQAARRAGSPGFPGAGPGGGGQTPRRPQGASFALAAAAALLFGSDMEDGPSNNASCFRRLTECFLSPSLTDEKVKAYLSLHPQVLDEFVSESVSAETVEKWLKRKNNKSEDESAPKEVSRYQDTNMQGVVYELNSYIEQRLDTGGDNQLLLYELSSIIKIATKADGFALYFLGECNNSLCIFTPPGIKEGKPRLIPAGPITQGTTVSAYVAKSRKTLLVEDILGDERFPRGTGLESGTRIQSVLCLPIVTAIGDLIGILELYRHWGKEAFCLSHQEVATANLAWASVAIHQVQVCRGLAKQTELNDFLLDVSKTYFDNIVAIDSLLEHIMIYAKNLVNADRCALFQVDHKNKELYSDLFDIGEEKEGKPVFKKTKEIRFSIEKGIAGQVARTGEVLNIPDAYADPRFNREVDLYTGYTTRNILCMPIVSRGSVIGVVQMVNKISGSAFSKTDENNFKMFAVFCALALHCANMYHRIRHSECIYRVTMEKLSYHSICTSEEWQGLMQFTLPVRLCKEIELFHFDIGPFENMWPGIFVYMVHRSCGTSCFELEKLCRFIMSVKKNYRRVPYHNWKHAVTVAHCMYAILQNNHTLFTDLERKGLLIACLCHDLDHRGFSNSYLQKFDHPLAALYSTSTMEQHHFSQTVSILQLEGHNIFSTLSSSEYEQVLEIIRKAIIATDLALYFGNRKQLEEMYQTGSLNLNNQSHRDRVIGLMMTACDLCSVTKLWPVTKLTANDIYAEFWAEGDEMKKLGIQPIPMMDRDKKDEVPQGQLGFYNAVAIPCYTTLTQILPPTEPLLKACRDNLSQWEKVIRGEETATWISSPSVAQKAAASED

Question: With `COc1ccc2c(c1)C(CC(=O)Nc1cccnc1)=C(C)/C2=C/c1cc(OC)c(OC)c(OC)c1` [MCI-030] as the compound, how does the “cellular cAMP level” value read?
Answer: The value was “MCI-030 increased cAMP only in SKOV3 parental and EV 1B9 control cells, but not in the PDE10A KO clones”.
